From the NIST ThermoML archive (doi:10.1021/je900260g)
Numbers after ± are expanded uncertainties.

Test: mn = molality of the nth substance listed, in mol/kg
Conditions: 101 kPa, Liquid

NC(CO)(CO)CO [2-amino-2-(hydroxymethyl)-1,3-propanediol] + O
mass density [kg/m3]
Conditions | m1 = 1.667 | m1 = 2.294 | m1 = 2.945 | m1 = 3.66 | m1 = 4.271 | m1 = 4.908 | m1 = 5.586
298.15 K | 1043.81 ± 1.5 | 1053.88 ± 1.7 | 1065.01 ± 1.8 | 1077.08 ± 2 | 1086.34 ± 2.1 | 1098.03 ± 2.2 | 1106.97 ± 2.3
303.15 K | 1042.04 ± 1.5 | 1052.01 ± 1.6 | 1063.04 ± 1.8 | 1075.01 ± 1.9 | 1084.19 ± 2 | 1095.81 ± 2.2 | 1104.68 ± 2.3
310.15 K | 1039.3 ± 1.5 | 1049.14 ± 1.6 | 1060.05 ± 1.8 | 1071.88 ± 1.9 | 1080.98 ± 2 | 1092.51 ± 2.1 | 1101.29 ± 2.3
318.15 K | 1035.79 ± 1.4 | 1045.51 ± 1.6 | 1056.29 ± 1.7 | 1068.02 ± 1.9 | 1077.02 ± 2 | 1088.46 ± 2.1 | 1097.18 ± 2.2
323.15 K | 1033.4 ± 1.4 | 1043.01 ± 1.5 | 1053.79 ± 1.7 | 1065.43 ± 1.8 | 1074.4 ± 1.9 | 1085.8 ± 2.1 | 1094.46 ± 2.2
328.15 K | 1030.82 ± 1.4 | 1039.97 ± 1.5 | 1051.16 ± 1.6 | 1062.67 ± 1.8 | 1071.63 ± 1.9 | 1083.04 ± 2 | 1091.67 ± 2.1

O=S(=O)(O)CCCCNC(CO)(CO)CO [N-tris(Hydroxymethyl)methyl-4-aminobutanesulfonic acid] + O
mass density [kg/m3]
Conditions | m1 = 0.9378 | m1 = 1.552 | m1 = 2.487 | m1 = 4.08 | m1 = 4.796 | m1 = 5.154 | m1 = 5.549
298.15 K | 1067.23 ± 0.94 | 1100.73 ± 1.2 | 1143.55 ± 1.4 | 1200.45 ± 1.8 | 1218.48 ± 2 | 1228.57 ± 2 | 1235.88 ± 2.1
303.15 K | 1065.48 ± 0.92 | 1098.86 ± 1.1 | 1141.42 ± 1.4 | 1198.12 ± 1.8 | 1216.1 ± 1.9 | 1226.17 ± 2 | 1233.46 ± 2.1
310.15 K | 1062.76 ± 0.91 | 1095.93 ± 1.1 | 1138.29 ± 1.4 | 1194.76 ± 1.8 | 1212.71 ± 1.9 | 1222.74 ± 2 | 1229.98 ± 2
318.15 K | 1059.29 ± 0.89 | 1092.31 ± 1.1 | 1134.48 ± 1.4 | 1190.76 ± 1.8 | 1208.68 ± 1.9 | 1218.68 ± 2 | 1225.89 ± 2
323.15 K | 1056.9 ± 0.87 | 1089.87 ± 1.1 | 1131.99 ± 1.4 | 1188.17 ± 1.8 | 1206.07 ± 1.9 | 1216.06 ± 2 | 1223.25 ± 2
328.15 K | 1054.08 ± 0.85 | 1086.99 ± 1.1 | 1129.4 ± 1.4 | 1185.52 ± 1.8 | 1203.41 ± 1.9 | 1213.41 ± 1.9 | 1220.58 ± 2
